Assay results published in ChEMBL document CHEMBL1201862, “PubChem BioAssay data set” (2004).
Values joined by “and” are separate entries in the source; they are usually repeats but may differ in a detail not shown here. Identical values can stand only once.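 48-hour exposure; five concentrations; linearly interpolated endpoints. GI50: concentration for 50% inhibition of growth.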 Active and inactive are the calls of the source. No stated cut-off is given here; in the data, active = GI50 up to about 1.1 µM and inactive = higher.

Key:
Experiment in all cases: NCI-60 cell line screen, 48 h
RPMI-8226 = system: RPMI-8226
RXF 631 = system: RXF 631
UACC-62 = system: UACC-62
DLD-1 = system: DLD-1
NCI-H522 = system: NCI-H522
SK-MEL-5 = system: SK-MEL-5
IGROV-1 = system: IGROV-1
SNB-19 = system: SNB-19
SF-539 = system: SF-539
OVCAR-4 = system: OVCAR-4
TK-10 = system: TK-10
SK-OV-3 = system: SK-OV-3
SNB-75 = system: SNB-75
M19-MEL = system: M19-MEL
SW-620 = system: SW-620
SNB-78 = system: SNB-78
XF498 = system: XF498
OVCAR-5 = system: OVCAR-5
A498 = system: A498
SF-295 = system: SF-295
SK-MEL-2 = system: SK-MEL-2
HL-60 = system: HL-60
NCI-H23 = system: NCI-H23
KM12 = system: KM12
LOX IMVI = system: LOX IMVI
HCT-116 = system: HCT-116
HOP-62 = system: HOP-62
DMS-114 = system: DMS-114
HT-29 = system: HT-29
NCI-H226 = system: NCI-H226
HCC 2998 = system: HCC 2998
K562 = system: K562
KM-20L2 = system: KM-20L2
CCRF-CEM = system: CCRF-CEM
DMS-273 = system: DMS-273
HCT-15 = system: HCT-15
EKVX = system: EKVX
MOLT-4 = system: MOLT-4
Malme-3M = system: Malme-3M
UO-31 = system: UO-31
NCI-H460 = system: NCI-H460
OVCAR-3 = system: OVCAR-3
ACHN = system: ACHN
LXFL 529 = system: LXFL 529
SN12C = system: SN12C
786-0 = system: 786-0
SR = system: SR
SK-MEL-28 = system: SK-MEL-28
U-251 = system: U-251
COLO 205 = system: COLO 205
OVCAR-8 = system: OVCAR-8
M14 = system: M14
A549 = system: A549
HOP-18 = system: HOP-18
SF-268 = system: SF-268
CAKI-1 = system: CAKI-1
HOP-92 = system: HOP-92

Cc1cc(Cl)cc2c1NC(=O)C2(O)C(C(=O)c1ccccc1)c1ccccc1 (stereo not drawn)
GI50 (RPMI-8226): 17.4 µM (inactive) and 22.9 µM (inactive) | GI50 (RXF 631): 37.8 µM (inactive) and 70.1 µM (inactive) | GI50 (UACC-62): 17.3 µM (inactive) | GI50 (DLD-1): 53.8 µM (inactive) and 42.3 µM (inactive) | GI50 (NCI-H522): 36.5 µM (inactive) | GI50 (SK-MEL-5): 21.2 µM (inactive) | GI50 (IGROV-1): 26.2 µM (inactive) | GI50 (SNB-19): 77.6 µM (inactive) | GI50 (SF-539): 21 µM (inactive) | GI50 (OVCAR-4): 20.4 µM (inactive) and 35.5 µM (inactive) | GI50 (TK-10): > 100 µM (inactive) and 84.7 µM (inactive) | GI50 (SK-OV-3): 56.6 µM (inactive) | GI50 (SNB-75): 24.7 µM (inactive) and 21.7 µM (inactive) | GI50 (M19-MEL): 3.4 µM (inactive) | GI50 (SW-620): 44.7 µM (inactive) and 76 µM (inactive) | GI50 (SNB-78): 41.8 µM (inactive) and 56.6 µM (inactive) | GI50 (XF498): 36.4 µM (inactive) and 28.7 µM (inactive) | GI50 (OVCAR-5): > 100 µM (inactive) | GI50 (A498): 27.7 µM (inactive) | GI50 (SF-295): 45.7 µM (inactive) and 67.8 µM (inactive) | GI50 (SK-MEL-2): 44.8 µM (inactive) and 32.3 µM (inactive) | GI50 (HL-60): 20.1 µM (inactive) | GI50 (NCI-H23): 52.5 µM (inactive) and 38.6 µM (inactive) | GI50 (KM12): 47.6 µM (inactive) and 60.4 µM (inactive) | GI50 (LOX IMVI): 19.3 µM (inactive) and 33 µM (inactive) | GI50 (HCT-116): 23.4 µM (inactive) | GI50 (HOP-62): 82 µM (inactive) and 47.3 µM (inactive) | GI50 (DMS-114): 22.9 µM (inactive) and 25.6 µM (inactive) | GI50 (HT-29): 35.2 µM (inactive) and 39.8 µM (inactive) | GI50 (NCI-H226): 36.4 µM (inactive) and 27.3 µM (inactive) | GI50 (HCC 2998): 23.9 µM (inactive) and 29.9 µM (inactive) | GI50 (K562): 33.5 µM (inactive) | GI50 (KM-20L2): 88.9 µM (inactive) | GI50 (CCRF-CEM): 26.7 µM (inactive) | GI50 (DMS-273): 55.8 µM (inactive) | GI50 (HCT-15): 71.3 µM and 46.7 µM | GI50 (EKVX): 49.8 µM (inactive) and 67.8 µM (inactive) | GI50 (MOLT-4): 16 µM (inactive)

N#C/C(N)=N/c1ccccc1
GI50 (RPMI-8226): > 100 µM (inactive) | GI50 (Malme-3M): > 100 µM (inactive) | GI50 (RXF 631): > 100 µM (inactive) | GI50 (UO-31): > 100 µM (inactive) | GI50 (UACC-62): > 100 µM (inactive) | GI50 (DLD-1): > 100 µM (inactive) | GI50 (NCI-H522): > 100 µM (inactive) | GI50 (NCI-H460): > 100 µM (inactive) | GI50 (SK-MEL-5): > 100 µM (inactive) | GI50 (IGROV-1): > 100 µM (inactive) | GI50 (SNB-19): > 100 µM (inactive) | GI50 (SF-539): > 100 µM (inactive) | GI50 (OVCAR-4): > 100 µM (inactive) | GI50 (TK-10): > 100 µM (inactive) | GI50 (SK-OV-3): > 100 µM (inactive) | GI50 (SNB-75): > 100 µM (inactive) | GI50 (M19-MEL): > 100 µM (inactive) | GI50 (SW-620): > 100 µM (inactive) | GI50 (OVCAR-3): > 100 µM (inactive) | GI50 (ACHN): > 100 µM (inactive) | GI50 (OVCAR-5): > 100 µM (inactive) | GI50 (A498): > 100 µM (inactive) | GI50 (SF-295): > 100 µM (inactive) | GI50 (SK-MEL-2): > 100 µM (inactive) | GI50 (LXFL 529): > 100 µM (inactive) | GI50 (HL-60): > 100 µM (inactive) | GI50 (SN12C): > 100 µM (inactive) | GI50 (NCI-H23): > 100 µM (inactive) | GI50 (786-0): > 100 µM (inactive) | GI50 (KM12): > 100 µM (inactive) | GI50 (LOX IMVI): 68.7 µM (inactive) | GI50 (SR): > 100 µM (inactive) | GI50 (HCT-116): > 100 µM (inactive) | GI50 (SK-MEL-28): > 100 µM (inactive) | GI50 (U-251): > 100 µM (inactive) | GI50 (HOP-62): > 100 µM (inactive) | GI50 (COLO 205): > 100 µM (inactive) | GI50 (OVCAR-8): > 100 µM (inactive) | GI50 (DMS-114): 16.9 µM (inactive) | GI50 (M14): > 100 µM (inactive) | GI50 (A549): > 100 µM (inactive) | GI50 (HT-29): > 100 µM (inactive) | GI50 (NCI-H226): > 100 µM (inactive) | GI50 (HOP-18): > 100 µM (inactive) | GI50 (SF-268): > 100 µM (inactive) | GI50 (HCC 2998): > 100 µM (inactive) | GI50 (K562): 71 µM (inactive) | GI50 (KM-20L2): > 100 µM (inactive) | GI50 (CCRF-CEM): > 100 µM (inactive) | GI50 (DMS-273): > 100 µM (inactive) | GI50 (HCT-15): > 100 µM | GI50 (CAKI-1): > 100 µM (inactive) | GI50 (HOP-92): > 100 µM (inactive) | GI50 (EKVX): > 100 µM (inactive) | GI50 (MOLT-4): > 100 µM (inactive)
